Measured values as given in patent US20040254173A1, “Modulation of dopamine responses with substituted (S)-2,3-benzodiazepines” (priority 2003, published 2004).

Columns and labels:
[1] = test system: muricide (mouse killing behavior) in rats; settings: Ito 1981; cited from earlier work
[2] = test system: anti-noradrenergic effects; settings: Ito 1981; cited from earlier work
aggression in mice = settings: Ito 1981; cited from earlier work
narcosis = settings: mice; U.S. Pat. No. 4,322,346; cited from earlier work
central BZ receptors = settings: cited from earlier work
peripheral BZ receptors = peripheral BZ receptors (Homo sapiens, UniProt P30536); settings: cited from earlier work
[3] = test system: apomorphine-induced hypothermia, stereotypies and climbing; test: Low Dose Apomorphine Test in the mouse; format: in vivo; settings: for STEREOTYPY (intensity score), 20 min after apomorphine, mean ± s.e.m. / STEREOTYPY (intensity score), 50 min after apomorphine, mean ± s.e.m.: 4 point scale (0-3); for CLIMBING (No. of mice), 20 minutes after apomorphine / CLIMBING (No. of mice), 50 minutes after apomorphine: 6 mice per group; for Rectal Temperature, 30 min after apomorphine, mean ± s.e.m. / Rectal Temperature, 60 min after apomorphine, mean ± s.e.m. / Rectal Temperature, before apomorphine, mean ± s.e.m.: mouse; for Rectal Temperature, 30 min after apomorphine, mean change from control / Rectal Temperature, 60 min after apomorphine, mean change from control / STEREOTYPY (intensity score), 20 min after apomorphine, mean change from control / STEREOTYPY (intensity score), 50 min after apomorphine, mean change from control: vs vehicle; for Rectal Temperature, before apomorphine, mean ± s.e.m.: 30 min after test substance
Description: Racemic tofisopam, (R)-tofisopam and (S)-tofisopam were investigated in the Low Dose Apomorphine Test in the mouse to evaluate their pro- or anti-dopaminergic activity following intraperitoneal (i.p.) administration of apomorphine. Apomorphine, at a low dose, induces hypothermia, stereotypies and climbing. All three of these symptoms are potentiated by dopaminergic agonists and antagonized by dopamine antagonists, such as classical neuroleptics. The Low Dose Apomorphine Test, thus serves to detect pro- or antidopaminergic activity. The test was performed according to the protocols described by Chermat and Poncelet. See, Chermat R., Poncelet M., “Antagonisme des redressements, des stéréotypies et de l'hypotheimie induits par 1 ou 16 mg.kg-1 d'apomorphine,” J. Pharmacol., 14, 93-97, 1983.
Male mice of Rj: NMRI strain, 23-26 g body weight range were supplied by Elevage Janvier, 53940 Le Genest-Saint-Isle, France. The animals were delivered to the laboratory at least 3 days before the experiment and, upon arrival, were housed 10 per cage in macrolon cages (25×19×13 cm) containing wood shavings (Litalabo-SPPS, 95100 Argenteuil, France) with free access to food (UAR 113-UAR, 91360 Epinay-sur-Orge, France) and tap water (i.e. non-fasted) until tested. The animal house was maintained under artificial lighting (12 hours) between 7.00 and 19.00 in a controlled ambient temperature of 21±1° C., and relative humidity maintained at 40-70%.
The different treatments were equally distributed between the animals. During the experiment, each animal within a cage received the same treatment. Animals within a cage were individually marked on the tail with an indelible pen.
The experiment was conducted blind with treatment vials labeled A, B, C etc., according to a standardized coding procedure. The evaluation of the different treatments was balanced over time by testing successive series of individual animals from each treatment group in a fixed rotation (A, B, C, etc.). Animals were sacrificed at the end of the experiment by exposure to CO2.
Three compounds, racemic tofisopam, (R)-tofisopam and (S)-tofisopam were tested in the Low Dose Apomorphine Test. Each of these three compounds was dosed as a dispersion in 0.2% hydroxypropylmethylcellulose (HPMC) (Sigma), in sterile physiological saline (Laboratoire Aguettant).
Two reference standards were also dosed. Bromocriptine, methanesulfonate (Sigma), a known dopamine agonist, and haloperidol (Sigma), a known dopamine antagonist, were dispersed in 0.2% HPMC in sterile physiological saline.
Apomorphine hydrochloride, the dopamine mimetic employed in the assay, was dissolved in water for injectable preparation (Laboratoire Aguettant). Dosing: All of the dosed substances were administered in a volume of 10 ml/kg. The doses are expressed in mg/kg of supplied substance.
6 mice were studied per group. The test was performed blind.
Racemic tofisopam, (R)-tofisopam and (S)-tofisopam were administered at doses of 16, 32 and 64 mg/kg, administered intraperitonealy (i.p.), 30 minutes prior to administration of apomorphine.
The rectal temperature of the mice was measured prior to apomorphine dosing using a rectal probe (Physitemp Instruments Digital Laboratory Thermometer Model BAT-12). The mice were then placed in individual Plexiglas cages (10×6×4 cm) attached with the opening against a vertical wire grid.
The mice were then injected subcutaneously (s.c.) with apomorphine (1 mg/kg). Rectal temperature was measured 30 and 60 minutes after the injection of apomorphine.
The intensity of stereotypies (sniffing, licking, gnawing), were scored at 20 minutes and 50 minutes after injection of apomorphine on a 4 point scale (0-3). The presence (1) or absence (0) of climbing against the wire grid wall, were also assessed 20 and 50 minutes after injection of apomorphine.
The reference standards bromocriptine (16 mg/kg) and haloperidol (0.5 mg/kg), were administered under the same experimental conditions.

[4] = 16 mg/kg i.p. 30 min before apomorphine 1 mg/kg s.c.
[5] = 32 mg/kg i.p. 30 min before apomorphine 1 mg/kg s.c.
[6] = 64 mg/kg i.p. 30 min before apomorphine 1 mg/kg s.c.

Chain of peripheral BZ receptors (P30536 whole entry): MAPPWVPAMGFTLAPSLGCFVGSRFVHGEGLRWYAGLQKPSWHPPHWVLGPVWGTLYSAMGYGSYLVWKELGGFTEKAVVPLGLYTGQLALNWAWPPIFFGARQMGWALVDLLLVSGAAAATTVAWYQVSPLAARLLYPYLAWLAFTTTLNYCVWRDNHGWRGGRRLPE

CCC1C(C)=NN=C(c2ccc(O)c(OC)c2)c2cc(OC)c(O)cc21 (centres unmarked) [1-(3-Methoxy-4-hydroxyphenyl)-4-methyl-5-ethyl-7-hydroxy-8-methoxy-5H-2,3-benzodiazepine]
inhibition of muricide [1]: 20% | antinoradrenergic effect [2]: a measurable antinoradrenergic effect | inhibition of aggression in mice (aggression in mice): 28.6%

CCC1C(C)=NN=C(c2ccc(O)c(OC)c2)c2cc(OC)c(OC)cc21 (centres unmarked) [1-(3-Methoxy-4-hydroxyphenyl)-4-methyl-5-ethyl-7,8-dimethoxy-5H-2,3-benzodiazepine]
inhibition of muricide [1]: 0% | narcosis-potentiating activity (narcosis): narcosis-potentiating activity | antinoradrenergic effect [2]: a measurable antinoradrenergic effect | inhibition of aggression in mice (aggression in mice): 0%

CCC1C(C)=NN=C(c2ccc(OC)c(OC)c2)c2cc(OC)c(O)cc21 (centres unmarked) [1-(3,4-Dimethoxyphenyl)-4-methyl-5-ethyl-7-hydroxy-8-methoxy-5H-2,3-benzodiazepine]
inhibition of muricide [1]: 20% | antinoradrenergic effect [2]: no antinoradrenergic effect | inhibition of aggression in mice (aggression in mice): 0%

CCC1C(C)=NN=C(c2ccc(OC)c(OC)c2)c2cc(OC)c(OC)cc21 (racemic) [Racemic tofisopam, racemic-1-(3,4-dimethoxyphenyl)-4-methyl-5-ethyl-7,8-dimethoxy-5H-2,3-benzodiazepine]
interaction with central BZ receptors (central BZ receptors): does not interact | binding to peripheral BZ receptors (peripheral BZ receptors): binds only weakly | STEREOTYPY (intensity score), 20 min after apomorphine, mean ± s.e.m. [3, 4]: 3.0 ± 0.0 | STEREOTYPY (intensity score), 50 min after apomorphine, mean ± s.e.m. [3, 4]: 0.7 ± 0.2 | CLIMBING (No. of mice), 20 minutes after apomorphine [3, 4]: 6 No. of mice | CLIMBING (No. of mice), 50 minutes after apomorphine [3, 4]: 3 No. of mice | Rectal Temperature, 30 min after apomorphine, mean ± s.e.m. [3, 4]: 35.3 ± 0.6 °C | Rectal Temperature, 60 min after apomorphine, mean ± s.e.m. [3, 4]: 36.9 ± 0.3 °C | Rectal Temperature, 30 min after apomorphine, mean change from control [3, 4]: +0.2 °C | Rectal Temperature, 60 min after apomorphine, mean change from control [3, 4]: +0.2 °C | STEREOTYPY (intensity score), 20 min after apomorphine, mean change from control [3, 4]: +0.8 | STEREOTYPY (intensity score), 50 min after apomorphine, mean change from control [3, 4]: −0.3 | Rectal Temperature, before apomorphine, mean ± s.e.m. ([3]; 16 mg/kg i.p.): 37.3 ± 0.1 °C | STEREOTYPY (intensity score), 20 min after apomorphine, mean ± s.e.m. [3, 5]: 2.8 ± 0.2 | STEREOTYPY (intensity score), 50 min after apomorphine, mean ± s.e.m. [3, 5]: 0.8 ± 0.3 | CLIMBING (No. of mice), 20 minutes after apomorphine [3, 5]: 6 No. of mice | CLIMBING (No. of mice), 50 minutes after apomorphine [3, 5]: 5 No. of mice | Rectal Temperature, 30 min after apomorphine, mean ± s.e.m. [3, 5]: 34.3 ± 0.5 °C | Rectal Temperature, 60 min after apomorphine, mean ± s.e.m. [3, 5]: 36.6 ± 0.3 °C | Rectal Temperature, 30 min after apomorphine, mean change from control [3, 5]: −0.8 °C | Rectal Temperature, 60 min after apomorphine, mean change from control [3, 5]: −0.1 °C | STEREOTYPY (intensity score), 20 min after apomorphine, mean change from control [3, 5]: +0.6 | STEREOTYPY (intensity score), 50 min after apomorphine, mean change from control [3, 5]: −0.2 | Rectal Temperature, before apomorphine, mean ± s.e.m. ([3]; 32 mg/kg i.p.): 37.1 ± 0.2 °C | STEREOTYPY (intensity score), 20 min after apomorphine, mean ± s.e.m. [3, 6]: 2.3 ± 0.2 | STEREOTYPY (intensity score), 50 min after apomorphine, mean ± s.e.m. [3, 6]: 1.3 ± 0.2 | CLIMBING (No. of mice), 20 minutes after apomorphine [3, 6]: 6 No. of mice | CLIMBING (No. of mice), 50 minutes after apomorphine [3, 6]: 4 No. of mice | Rectal Temperature, 30 min after apomorphine, mean ± s.e.m. [3, 6]: 33.9 ± 0.5 °C | Rectal Temperature, 60 min after apomorphine, mean ± s.e.m. [3, 6]: 36.3 ± 0.3 °C | Rectal Temperature, 30 min after apomorphine, mean change from control [3, 6]: −1.2 °C | Rectal Temperature, 60 min after apomorphine, mean change from control [3, 6]: −0.4 °C | STEREOTYPY (intensity score), 20 min after apomorphine, mean change from control [3, 6]: +0.1 | STEREOTYPY (intensity score), 50 min after apomorphine, mean change from control [3, 6]: +0.3 | Rectal Temperature, before apomorphine, mean ± s.e.m. ([3]; 64 mg/kg i.p.): 37.2 ± 0.2 °C | behaviour on apomorphine-induced hypothermia (rectal temperature) ([3]; 64 mg/kg, thirty and sixty minute time points, trend not statistically significant): weak dopamine antagonist | behaviour on apomorphine-induced stereotypies ([3]; 16 and 32 mg/kg, twenty minute time point, significant only at 16 mg/kg): strong dopamine agonist
